Laboratory results reported in ChEMBL document CHEMBL1201861, “Genomics of Drug Sensitity in Cancer screening data, Wellcome Trust Sanger Institute”.

Tests used:
Assay in all cases: cells
HCC1599 = format: functional, cell-based, Homo sapiens; details: Homo sapiens, HCC1599;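 note: growth inhibition of HCC1599 cells, read out in a cell viability assay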
Description: SANGER: Inhibition of human HCC1599 cell growth in a cell viability assay.

KYSE-140 = format: functional, cell-based; details: Homo sapiens;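 note: cell viability assay measuring growth inhibition in human KYSE-140 cells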
Description: SANGER: Inhibition of human KYSE-140 cell growth in a cell viability assay.

MKN-28 = format: functional, cell-based; details: Homo sapiens;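 note: cell viability assay read-out, IC50 reflects suppression of growth of human MKN-28 cells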
Description: SANGER: Inhibition of human MKN28 cell growth in a cell viability assay.

SUP-T1 = format: functional, cell-based, Homo sapiens; details: Homo sapiens, SUP-T1;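 note: growth inhibition of human SUP-T1 cells, read out as cell viability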
Description: SANGER: Inhibition of human SUP-T1 cell growth in a cell viability assay.

HCT-15 = format: functional, cell-based; details: Homo sapiens;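 note: cell viability readout, IC50 reflecting suppression of HCT-15 cell growth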
Description: SANGER: Inhibition of human HCT-15 cell growth in a cell viability assay.

SNU-387 = format: functional, cell-based; details: Homo sapiens
Description: SANGER: Inhibition of human SNU-387 cell growth in a cell viability assay.

BC-3 = format: functional, cell-based, Homo sapiens; details: Homo sapiens, BC-3;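 note: cell viability assay measuring growth inhibition of human BC-3 cells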
Description: SANGER: Inhibition of human BC-3 cell growth in a cell viability assay.

HCC1806 = format: functional, cell-based; details: Homo sapiens;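 note: growth inhibition of the cancer cell line, determined with a cell viability assay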
Description: SANGER: Inhibition of human HCC1806 cell growth in a cell viability assay.

SW948 = format: functional, cell-based; details: Homo sapiens;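 note: growth inhibition of SW948 cells, read out with a cell viability assay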
Description: SANGER: Inhibition of human SW948 cell growth in a cell viability assay.

NCI-H2052 = format: functional, cell-based; details: Homo sapiens;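 note: growth inhibition of NCI-H2052 cells, read out with a cell viability assay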
Description: SANGER: Inhibition of human NCI-H2052 cell growth in a cell viability assay.

EFO-27 = format: functional, cell-based; details: Homo sapiens;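 note: growth inhibition of EFO-27 cells, read out with a cell viability assay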
Description: SANGER: Inhibition of human EFO-27 cell growth in a cell viability assay.

LOUCY = format: functional, cell-based, Homo sapiens; details: Homo sapiens, LOUCY;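 note: growth inhibition of human LOUCY cells, read out with a cell viability assay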
Description: SANGER: Inhibition of human LOUCY cell growth in a cell viability assay.

NCI-H1522 = format: functional, cell-based, Homo sapiens; details: Homo sapiens, NCI-H1522;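 note: growth inhibition of NCI-H1522 cells, read out with a cell viability assay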
Description: SANGER: Inhibition of human NCI-H1522 cell growth in a cell viability assay.

KYSE-180 = format: functional, cell-based; details: Homo sapiens;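 note: growth inhibition of KYSE-180 cells, read out with a cell viability assay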
Description: SANGER: Inhibition of human KYSE-180 cell growth in a cell viability assay.

NCI-H1573 = format: functional, cell-based; details: Homo sapiens;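 note: growth inhibition of NCI-H1573 cells, read out with a cell viability assay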
Description: SANGER: Inhibition of human NCI-H1573 cell growth in a cell viability assay.

OVCAR-5 = format: functional, cell-based; details: Homo sapiens;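 note: growth inhibition of human OVCAR-5 cells, read out with a cell viability assay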
Description: SANGER: Inhibition of human OVCAR-5 cell growth in a cell viability assay.

COR-L23 = format: functional, cell-based; details: Homo sapiens;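 note: cell viability assay measuring how strongly compounds suppress growth of COR-L23 cells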
Description: SANGER: Inhibition of human COR-L23 cell growth in a cell viability assay.

NCI-H1703 = format: functional, cell-based; details: Homo sapiens;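 note: growth inhibition of NCI-H1703 cells, read out via a cell viability assay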
Description: SANGER: Inhibition of human NCI-H1703 cell growth in a cell viability assay.

OE33 = format: functional, cell-based; details: Homo sapiens;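 note: growth inhibition of human OE33 cells, measured by a cell viability assay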
Description: SANGER: Inhibition of human OE33 cell growth in a cell viability assay.

NALM-6 = format: functional, cell-based, Homo sapiens; details: Homo sapiens, NALM-6;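 note: growth inhibition of NALM-6 cells, read out with a cell viability assay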
Description: SANGER: Inhibition of human NALM-6 cell growth in a cell viability assay.

BL-41 = format: functional, cell-based; details: Homo sapiens;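 note: growth inhibition of human BL-41 cells, read out with a cell viability assay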
Description: SANGER: Inhibition of human BL-41 cell growth in a cell viability assay.

NCI-H520 = format: functional, cell-based; details: Homo sapiens;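 note: growth inhibition of NCI-H520 cells, measured by a cell viability assay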
Description: SANGER: Inhibition of human NCI-H520 cell growth in a cell viability assay.

AU565 = format: functional, cell-based; details: Homo sapiens;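 note: cell viability assay measuring growth inhibition of human AU565 cells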
Description: SANGER: Inhibition of human AU565 cell growth in a cell viability assay.

FaDu = format: functional, cell-based; details: Homo sapiens;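 note: cell viability readout of growth inhibition in FaDu cells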
Description: SANGER: Inhibition of human FADU cell growth in a cell viability assay.

CAL-85-1 = format: functional, cell-based; details: Homo sapiens;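 note: growth inhibition of human CAL-85-1 cells, read out with a cell viability assay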
Description: SANGER: Inhibition of human CAL-85-1 cell growth in a cell viability assay.

NCI-H1563 = format: functional, cell-based; details: Homo sapiens;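 note: growth inhibition of human NCI-H1563 cells, read out with a cell viability assay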
Description: SANGER: Inhibition of human NCI-H1563 cell growth in a cell viability assay.

SW1463 = format: functional, cell-based; details: Homo sapiens;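 note: growth inhibition of SW1463 cells, determined with a cell viability assay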
Description: SANGER: Inhibition of human SW1463 cell growth in a cell viability assay.

MC-CAR = format: functional, cell-based, Homo sapiens; details: Homo sapiens, MC-CAR;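 note: growth inhibition of the human MC-CAR cell line, read out by a cell viability assay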
Description: SANGER: Inhibition of human MC-CAR cell growth in a cell viability assay.

CAL-54 = format: functional, cell-based; details: Homo sapiens;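 note: growth inhibition of CAL-54 cells, read out by a viability measurement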
Description: SANGER: Inhibition of human CAL-54 cell growth in a cell viability assay.

KYSE-270 = format: functional, cell-based; details: Homo sapiens;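 note: cell growth inhibition measured with a viability assay in the human KYSE-270 line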
Description: SANGER: Inhibition of human KYSE-270 cell growth in a cell viability assay.

NCI-H2342 = format: functional, cell-based; details: Homo sapiens;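 note: growth inhibition of the cancer cell line, determined with a cell viability assay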
Description: SANGER: Inhibition of human NCI-H2342 cell growth in a cell viability assay.

NCI-H292 = format: functional, cell-based; details: Homo sapiens;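 note: growth inhibition of NCI-H292 cells, read out with a cell viability assay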
Description: SANGER: Inhibition of human NCI-H292 cell growth in a cell viability assay.

CaR-1 = format: functional, cell-based; details: Homo sapiens;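 note: growth inhibition of human CaR-1 cancer cells, read out with a cell viability assay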
Description: SANGER: Inhibition of human CaR-1 cell growth in a cell viability assay.

PC-3 = format: functional, cell-based; details: Homo sapiens;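 note: cell viability assay measuring growth inhibition of PC-3 cells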
Description: SANGER: Inhibition of human PC-3 cell growth in a cell viability assay.

CA46 = format: functional, cell-based, Homo sapiens; details: Homo sapiens, CA46;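 note: growth inhibition of human CA46 cells, read out by a cell viability assay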
Description: SANGER: Inhibition of human CA46 cell growth in a cell viability assay.

LB373-MEL-D = format: functional, cell-based, Homo sapiens; details: Homo sapiens, LB373-MEL-D;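 note: growth inhibition of the cell line, read out in a cell viability assay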
Description: SANGER: Inhibition of human LB373-MEL-D cell growth in a cell viability assay.

Daoy = format: functional, cell-based; details: Homo sapiens;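 note: daoy cell growth inhibition, read out as cell viability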
Description: SANGER: Inhibition of human Daoy cell growth in a cell viability assay.

RERF-LC-MS = format: functional, cell-based; details: Homo sapiens;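 note: growth inhibition of human RERF-LC-MS cells, read out by a cell viability assay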
Description: SANGER: Inhibition of human RERF-LC-MS cell growth in a cell viability assay.

PFSK-1 = format: functional, cell-based; details: Homo sapiens;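 note: cell viability assay measuring how strongly compounds suppress growth of human PFSK-1 cells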
Description: SANGER: Inhibition of human PFSK-1 cell growth in a cell viability assay.

NCI-H522 = format: functional, cell-based; details: Homo sapiens;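 note: cell viability assay measuring growth inhibition of human NCI-H522 cells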
Description: SANGER: Inhibition of human NCI-H522 cell growth in a cell viability assay.

LU-165 = format: functional, cell-based, Homo sapiens; details: Homo sapiens, LU-165
Description: SANGER: Inhibition of human LU-165 cell growth in a cell viability assay.

UMC-11 = format: functional, cell-based; details: Homo sapiens;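 note: growth inhibition of UMC-11 cells, read out with a cell viability assay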
Description: SANGER: Inhibition of human UMC-11 cell growth in a cell viability assay.

23132-87 = format: functional, cell-based; details: Homo sapiens
Description: SANGER: Inhibition of human 23132-87 cell growth in a cell viability assay.

YAPC = format: functional, cell-based; details: Homo sapiens;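 note: growth inhibition of YAPC cells, measured with a cell viability assay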
Description: SANGER: Inhibition of human YAPC cell growth in a cell viability assay.

NCI-H441 = format: functional, cell-based; details: Homo sapiens;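 note: growth inhibition of NCI-H441 cells, read out with a cell viability assay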
Description: SANGER: Inhibition of human NCI-H441 cell growth in a cell viability assay.

SK-HEP1 = format: functional, cell-based, SK-HEP-1; details: Homo sapiens;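 note: cell viability readout used to quantify reduction in proliferation of human SK-HEP-1 cells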
Description: SANGER: Inhibition of human SK-HEP-1 cell growth in a cell viability assay.

RD = format: functional, cell-based; details: Homo sapiens
Description: SANGER: Inhibition of human RD cell growth in a cell viability assay.

U-698-M = format: functional, cell-based, Homo sapiens; details: Homo sapiens, U-698-M
Description: SANGER: Inhibition of human U-698-M cell growth in a cell viability assay.

LP-1 = format: functional, cell-based, Homo sapiens; details: Homo sapiens, LP-1;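 note: growth inhibition of human LP-1 cells, with the read-out taken from a cell viability assay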
Description: SANGER: Inhibition of human LP-1 cell growth in a cell viability assay.

SCC-4 = format: functional, cell-based; details: Homo sapiens;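 note: growth inhibition of human SCC-4 cells, read out as cell viability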
Description: SANGER: Inhibition of human SCC-4 cell growth in a cell viability assay.

PC-14 = format: functional, cell-based; details: Homo sapiens;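 note: cell viability assay measuring inhibition of PC-14 cell growth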
Description: SANGER: Inhibition of human PC-14 cell growth in a cell viability assay.

RPMI-6666 = format: functional, cell-based, Homo sapiens; details: Homo sapiens, RPMI-6666
Description: SANGER: Inhibition of human RPMI-6666 cell growth in a cell viability assay.

C3A = format: functional, cell-based; details: Homo sapiens;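 note: growth inhibition of C3A human cells, quantified with a cell viability readout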
Description: SANGER: Inhibition of human C3A cell growth in a cell viability assay.

MDA-MB-453 = format: functional, cell-based; details: Homo sapiens
Description: SANGER: Inhibition of human MDA-MB-453 cell growth in a cell viability assay.

AN3-CA = format: functional, cell-based; details: Homo sapiens;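 note: growth inhibition of human AN3-CA cells measured by a cell viability assay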
Description: SANGER: Inhibition of human AN3-CA cell growth in a cell viability assay.

COLO-680N = format: functional, cell-based; details: Homo sapiens;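 note: cell viability assay used to measure inhibition of COLO-680N cell growth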
Description: SANGER: Inhibition of human COLO-680N cell growth in a cell viability assay.

UACC-893 = format: functional, cell-based; details: Homo sapiens
Description: SANGER: Inhibition of human UACC-893 cell growth in a cell viability assay.

NCI-H187 = format: functional, cell-based, Homo sapiens; details: Homo sapiens, NCI-H187
Description: SANGER: Inhibition of human NCI-H187 cell growth in a cell viability assay.

MDA-MB-231 = format: functional, cell-based; details: Homo sapiens
Description: SANGER: Inhibition of human MDA-MB-231 cell growth in a cell viability assay.

Structure (SMILES): CCCCCCCCCCCC1=C(O)C(=O)C=C(O)C1=O [EMBELIN]
- IC50 (HCC1599): 9.04 µM
- IC50 (KYSE-140): 5.04 µM
- IC50 (MKN-28): 10 µM
- IC50 (SUP-T1): 7.32 µM
- IC50 (HCT-15): 9.25 µM
- IC50 (SNU-387): 27.2 µM
- IC50 (BC-3): > 32 µM
- IC50 (HCC1806): > 32 µM
- IC50 (SW948): > 32 µM
- IC50 (NCI-H2052): 8.53 µM
- IC50 (EFO-27): > 32 µM
- IC50 (LOUCY): 5.1 µM
- IC50 (NCI-H1522): 30.6 µM
- IC50 (KYSE-180): 7.58 µM
- IC50 (NCI-H1573): 14.2 µM
- IC50 (OVCAR-5): > 32 µM
- IC50 (COR-L23): 9.63 µM
- IC50 (NCI-H1703): 19.1 µM
- IC50 (OE33): 13.3 µM
- IC50 (NALM-6): 9.09 µM
- IC50 (BL-41): 5.5 µM
- IC50 (NCI-H520): 13.2 µM
- IC50 (AU565): 9.91 µM
- IC50 (FaDu): 15.8 µM
- IC50 (CAL-85-1): 7.81 µM
- IC50 (NCI-H1563): > 32 µM
- IC50 (SW1463): > 32 µM
- IC50 (MC-CAR): 4.58 µM
- IC50 (CAL-54): 20.4 µM
- IC50 (KYSE-270): 8.86 µM
- IC50 (NCI-H2342): 6.99 µM
- IC50 (NCI-H292): 29.4 µM
- IC50 (CaR-1): > 32 µM
- IC50 (PC-3): 14.8 µM
- IC50 (CA46): 18.7 µM
- IC50 (LB373-MEL-D): 24.2 µM
- IC50 (Daoy): 5.46 µM
- IC50 (RERF-LC-MS): 30.6 µM
- IC50 (PFSK-1): 14 µM
- IC50 (NCI-H522): 17.7 µM
- IC50 (LU-165): > 32 µM
- IC50 (UMC-11): > 32 µM
- IC50 (23132-87): 23.3 µM
- IC50 (YAPC): > 32 µM
- IC50 (NCI-H441): 6.01 µM
- IC50 (SK-HEP1): 9.58 µM
- IC50 (RD): 15.3 µM
- IC50 (U-698-M): 25.2 µM
- IC50 (LP-1): > 32 µM
- IC50 (SCC-4): 17.4 µM
- IC50 (PC-14): 15.6 µM
- IC50 (RPMI-6666): 8.67 µM
- IC50 (C3A): 15.4 µM
- IC50 (MDA-MB-453): > 32 µM
- IC50 (AN3-CA): 6.25 µM
- IC50 (COLO-680N): 19.4 µM
- IC50 (UACC-893): 21.7 µM
- IC50 (NCI-H187): > 32 µM
- IC50 (MDA-MB-231): 21.8 µM

Structure (SMILES): C/C(=C\c1csc(C)n1)[C@@H]1C[C@@H]2O[C@]2(C)CCC[C@H](C)[C@H](O)[C@@H](C)C(=O)C(C)(C)[C@@H](O)CC(=O)O1 [PATUPILONE]
- IC50 (HCC1599): 0.0119 µM
- IC50 (KYSE-140): 0.00123 µM
- IC50 (MKN-28): 0.000462 µM
- IC50 (SUP-T1): > 0.032 µM
- IC50 (HCT-15): 0.000717 µM
- IC50 (SNU-387): 0.00566 µM
- IC50 (BC-3): 0.00839 µM
- IC50 (HCC1806): 0.00138 µM
- IC50 (SW948): 0.0178 µM
- IC50 (NCI-H2052): > 0.032 µM
- IC50 (EFO-27): 0.00169 µM
- IC50 (LOUCY): 0.00435 µM
- IC50 (NCI-H1522): > 0.032 µM
- IC50 (KYSE-180): 0.000601 µM
- IC50 (NCI-H1573): 0.00642 µM
- IC50 (OVCAR-5): 0.00284 µM
- IC50 (COR-L23): 0.00135 µM
- IC50 (NCI-H1703): 0.00776 µM
- IC50 (OE33): 0.00763 µM
- IC50 (NALM-6): 0.00218 µM
- IC50 (BL-41): 0.00135 µM
- IC50 (NCI-H520): 0.00295 µM
- IC50 (AU565): 0.0041 µM
- IC50 (FaDu): 0.0262 µM
- IC50 (CAL-85-1): 0.000662 µM
- IC50 (NCI-H1563): > 0.032 µM
- IC50 (SW1463): > 0.032 µM
- IC50 (MC-CAR): 0.00973 µM
- IC50 (CAL-54): > 0.032 µM
- IC50 (KYSE-270): 0.000445 µM
- IC50 (NCI-H2342): 0.000577 µM
- IC50 (NCI-H292): 0.00142 µM
- IC50 (CaR-1): > 0.032 µM
- IC50 (PC-3): 0.0234 µM
- IC50 (CA46): 0.00961 µM
- IC50 (LB373-MEL-D): 0.0181 µM
- IC50 (Daoy): < 0.000125 µM
- IC50 (RERF-LC-MS): 0.0245 µM
- IC50 (PFSK-1): 0.0133 µM
- IC50 (NCI-H522): 0.000635 µM
- IC50 (LU-165): > 0.032 µM
- IC50 (UMC-11): > 0.032 µM
- IC50 (23132-87): 0.00367 µM
- IC50 (YAPC): > 0.032 µM
- IC50 (NCI-H441): 0.00253 µM
- IC50 (SK-HEP1): 0.00111 µM
- IC50 (RD): 0.00442 µM
- IC50 (U-698-M): 0.00776 µM
- IC50 (LP-1): > 0.032 µM
- IC50 (SCC-4): 0.000877 µM
- IC50 (PC-14): 0.00421 µM
- IC50 (RPMI-6666): 0.0015 µM
- IC50 (C3A): 0.00342 µM
- IC50 (MDA-MB-453): > 0.032 µM
- IC50 (AN3-CA): 0.000452 µM
- IC50 (COLO-680N): 0.00716 µM
- IC50 (UACC-893): > 0.032 µM
- IC50 (NCI-H187): > 0.032 µM
- IC50 (MDA-MB-231): 0.0246 µM
